Activity calls are given as the source filed them. The calls are words filed in the database; no cut-off is given here.

For the assay, the system named is Nucleic Acid. Put plainly: Binding affinity to […] DNA oligomer d(CGATATATCG)2 (unknown origin) minor groove assessed as association constant by NMR. It counts as nucleic-acid assay.
With `COc1cccc(/C=C/c2ccc(C(=O)Nc3cc(C(=O)NCCN4CCOCC4)n(C)c3)cc2)c1`, the Ka entry is “inactive”. Then `CC(C)c1sc(NC(=O)c2cc(NC(=O)c3cc(NC=O)cn3C)cn2C)nc1C(=O)NCCCN(C)C`, with “inactive”. Turning to `CC(C)c1sc(NC(=O)c2cc(NC(=O)c3cc(NC(=O)c4cccnc4)cn3C)cn2C)nc1C(=O)NCCCN(C)C`, the Ka stood at 6.1 ×10⁴ /M.

As for `CC(=O)Nc1cn(C)c(C(=O)Nc2cc(C(=O)Nc3nc(C(=O)NCCCN(C)C)c(C(C)C)s3)n(C)c2)n1`, the Ka result was “inactive”.

(Values after ChEMBL document CHEMBL3132808, “Exceptionally strong intermolecular association in hydrophobic DNA minor groove binders and their potential therapeutic consequences” (Medchemcomm, 2013).)
